Experimental data: US10274488B2, “Glycan arrays on PTFE-like aluminum coated glass slides and related methods” (Academia Sinica, priority 2008, dated 2019)

What was measured:
Assay type in all cases: biochemical, Clostridium thermocellum
exoglucanase L3 [1] = assay: Enzymatic hydrolysis on the PTFE-like ACG surface with exoglucanase L3, MS-TOF assay; conditions: substrate immobilized on the PTFE-like ACG surface, 24 hours of incubation
Protocol: (§1) For each carbohydrate, a specific enzyme was added: (a) is the control run without enzymes, (b) is exoglucanase L3, and (c) is endoglucanase 44A. […]
(§2) For comparison and as illustrated according to implementations shown in FIG. 23, substrate 8, 9, and 10 were immobilized on the PTFE-like ACG surface and carried out the cellulase hydrolysis on the surface directly, after the same washing procedures, these slides were subjected to MS-TOF assay. […] The endoglucanase 44A can't accept compound 8 or 9 as a substrate. […] From the above results, the cellotetraose substrate 10 was the best carbohydrate to create array on the PTFE-like ACG surface for the experiments conducted. By using this array, the activity and specificity of unknown cellulase may be examined.
Cellulase was prepared (5 U/mL in 25 mM pH 5.05 NaOAc buffer solution). Substrate was also dissolved in NaOAc buffer solution (25 mM, pH 5.05) to give 0.5 mM substrate solution. Add 50 μL cellulase solution to 50 μL substrate solution onto the glass slide which was loaded in FAST® Frame multi-slide plate to have a 2.5 U/mL cellulase solution with 0.25 mM substrate. […] Put the slide in dry box to remove the water, and then use high vacuum to remove trace water. 100 uL water was used to rinse each well of the FAST® Frame multi-slide plate to solve and remove the salt of the buffer solution. Remove any residual water on the plate by high vacuum and then analyzed the slide by MALDI-TOF Ultra-Flex II.
(§3) The genomic DNA of Sulfolobus solfataricus (ATCC 35092) and Clostridium thermocellum (ATCC 27405) were obtained from the ATCC biological resource center. The Sso7d (NCBI accession number: AAK42090) gene fragment was amplified directly from the Sulfolobus solfataricus genome by polymerase chain reaction (PCR) with forward 5′ […] 3′ (SEQ ID NO: 1) and reverse 5′ […] 3′ (SEQ ID NO: 2) primers. […]

exoglucanase L3 [2] = assay: Enzymatic hydrolysis in solution with purified exoglucanase L3, MS-TOF assay; conditions: reaction in solution
Protocol: (§4) To verify, the exoglucanases (L3) and endoglucanase (44A) were prepared according methods well known in the literature with minor modifications. First, enzymatic hydrolysis reactions were conducted in solution with the purified enzymes using substrates 8, 9 and 10. At the completion of the reaction, the solution mixtures were transferred to the PTFE-like ACG slide, and prepared by using the same washing procedures before being subjected to MS-TOF assay.
as §1
(§5) Cellulase was prepared (5 U/mL in 25 mM pH 5.05 NaOAc buffer solution). Substrate was also dissolved in NaOAc buffer solution (25 mM, pH 5.05) to give 0.5 mM substrate solution. Add 100 uL cellulase solution to 100 uL substrate solution in eppendorf to have a 2.5 U/mL cellulase solution with 0.25 mM substrate. This solution was incubated in 37° C. for 18 hours. Add 100 μL incubated solution onto the slide loaded in FAST® Frame. Put the slide in dry box to remove the water, and then use high vacuum to remove trace water. 100 μL water was used to rinse each well of the FAST® Frame multi-slide plate to solve and remove the salt of the buffer solution. Remove any residual water on the plate by high vacuum and then analyzed the slide by MALDI-TOF Ultra-Flex II.
as §3, with “primers. The PCR product encoding Sso7d was digested with NdeI and BamHI and subsequently cloned into expression vector pET-28a (Novagen) to generate pET-28-Sso7d.” for “primers.”

endoglucanase 44A [3] = assay: Enzymatic hydrolysis on the PTFE-like ACG surface with endoglucanase 44A, MS-TOF assay; conditions: substrate immobilized on the PTFE-like ACG surface
Protocol: as §1, §2
Cellulase was prepared (5 U/mL in 25 mM pH 5.05 NaOAc buffer solution). Substrate was also dissolved in NaOAc buffer solution (25 mM, pH 5.05) to give 0.5 mM substrate solution. Add 50 μL cellulase solution to 50 μL substrate solution onto the glass slide which was loaded in FAST® Frame multi-slide plate to have a 2.5 U/mL cellulase solution with 0.25 mM substrate. The well of the plate was sealed and the whole assembly was incubated in 37° C. for 18 hours. Put the slide in dry box to remove the water, and then use high vacuum to remove trace water. 100 uL water was used to rinse each well of the FAST® Frame multi-slide plate to solve and remove the salt of the buffer solution. Remove any residual water on the plate by high vacuum and then analyzed the slide by MALDI-TOF Ultra-Flex II.
as §3

endoglucanase 44A [4] = assay: Enzymatic hydrolysis in solution with purified endoglucanase 44A, MS-TOF assay; conditions: reaction in solution
Protocol: as §4, §1, §5
as §3, with “primers. The PCR product encoding Sso7d was digested with NdeI and BamHI and subsequently cloned into expression vector pET-28a (Novagen) to generate pET-28-Sso7d.” for “primers.”

- Cleavage of the substrate by exoglucanase L3 (in words) (exoglucanase L3 [1]): cleaved the cellobiose quickly
- Cleavage of the substrate by exoglucanase L3 (in words) (exoglucanase L3 [2]): quickly
- Cleavage of the substrate by endoglucanase 44A (in words) (endoglucanase 44A [3]): cleaved cellotetraose quickly
SMILES: O=C(NCCCCCO[C@@H]1O[C@H](CO)[C@@H](O[C@@H]2O[C@H](CO)[C@@H](O[C@@H]3O[C@H](CO)[C@@H](O[C@@H]4O[C@H](CO)[C@@H](O)[C@H](O)[C@H]4O)[C@H](O)[C@H]3O)[C@H](O)[C@H]2O)[C@H](O)[C@H]1O)OCCCC(F)(F)C(F)(F)C(F)(F)C(F)(F)C(F)(F)C(F)(F)C(F)(F)C(F)(F)C(F)(F)F [Compound 10, [(4,4,5,5,6,6,7,7,8,8,9,9,10,10,11,11,12,12,12-nonadecafluorododecoxycarbonyl-amino)pentyl] ß-D-glucopyranosyl-(1→4)-ß-D-glucopyranosyl-(1→4)- -ß-D-glucopyranosyl-(1→4)-13-D-glucopyranoside]
- Cleavage of the substrate by endoglucanase 44A (in words) (endoglucanase 44A [4]): cleaves the trisaccharide or tetrasaccharide unit
